The test system of assay [1] is Raji. Kind of assay: Cytotoxicity against human Raji cells expressing Bcl-xL, Bcl-2 and Mcl-1 at 100 ug/ml after 72 hrs by MTT assay relative to control. It counts as functional. The settings on record: read-out: GI.
Assay [2] has as its target Apoptosis regulator Bcl-2 (Homo sapiens, UniProt P10415). Put plainly: Binding affinity to Bcl-2 by competitive fluorescence polarization assay.
Assay [3] addresses Induced myeloid leukemia cell differentiation protein Mcl-1 (Homo sapiens, UniProt Q07820). Put plainly: Binding affinity to Mcl-1 by competitive fluorescence polarization assay.
Assay [4] deals with MDA-MB-435. Kind of assay: Cytotoxicity against human MDA-MB-435 cells expressing Bcl-xL, Bcl-2 and Mcl-1 at 100 ug/ml after 72 hrs by MTT assay relative to control. It counts as functional. The settings on record: MDA-MB-435, 72 h, read-out: GI.
A further assay concerns the target Bcl-2-like protein 1 (Homo sapiens, UniProt Q07817). Kind of assay: Binding affinity to Bcl-xL by competitive fluorescence polarization assay.
Another assay relates to HCT-116. Put plainly: Cytotoxicity against human HCT116 cells expressing Bcl-xL, Bcl-2 and Mcl-1 after 72 hrs by MTT assay. The settings on record: HCT-116, 72 h. It is filed as functional, cell-based.
Assay [5] has as its system MDA-MB-435. Put plainly: Cytotoxicity against human MDA-MB-435 cells expressing Bcl-xL, Bcl-2 and Mcl-1 after 72 hrs by MTT assay. It counts as functional, cell-based. The settings on record: MDA-MB-435, 72 h.
The test system of assay [6] is Raji. Put plainly: Cytotoxicity against human Raji cells expressing Bcl-xL, Bcl-2 and Mcl-1 after 72 hrs by MTT assay. It counts as functional, cell-based.

Bcl-2-like protein 1, sequence (Q07817 whole entry): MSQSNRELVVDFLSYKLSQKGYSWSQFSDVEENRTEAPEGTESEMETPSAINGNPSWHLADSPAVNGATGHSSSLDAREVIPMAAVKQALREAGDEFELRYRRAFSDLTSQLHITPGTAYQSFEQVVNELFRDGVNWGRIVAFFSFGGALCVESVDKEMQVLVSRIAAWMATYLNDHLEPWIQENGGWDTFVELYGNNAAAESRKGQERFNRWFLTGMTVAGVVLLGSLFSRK
Induced myeloid leukemia cell differentiation protein Mcl-1, sequence (Q07820 whole entry): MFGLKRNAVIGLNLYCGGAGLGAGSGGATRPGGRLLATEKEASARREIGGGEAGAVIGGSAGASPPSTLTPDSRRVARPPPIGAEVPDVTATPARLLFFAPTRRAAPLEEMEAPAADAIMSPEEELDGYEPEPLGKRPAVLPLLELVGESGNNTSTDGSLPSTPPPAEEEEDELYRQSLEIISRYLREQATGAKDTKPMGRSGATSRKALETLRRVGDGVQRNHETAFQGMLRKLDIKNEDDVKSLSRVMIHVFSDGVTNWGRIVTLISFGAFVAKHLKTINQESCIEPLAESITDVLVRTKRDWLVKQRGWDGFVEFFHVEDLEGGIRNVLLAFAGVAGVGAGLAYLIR
Apoptosis regulator Bcl-2, sequence (P10415 whole entry): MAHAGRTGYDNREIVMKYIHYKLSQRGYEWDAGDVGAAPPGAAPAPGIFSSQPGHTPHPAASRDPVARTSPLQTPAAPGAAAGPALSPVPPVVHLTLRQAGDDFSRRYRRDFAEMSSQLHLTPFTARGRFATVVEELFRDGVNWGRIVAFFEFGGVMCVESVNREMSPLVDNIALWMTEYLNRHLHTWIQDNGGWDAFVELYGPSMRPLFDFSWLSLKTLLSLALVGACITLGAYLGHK

In the case of `CC(=O)N[C@@H](CC(C)C)C(=O)Nc1ccc(C(=O)NS(=O)(=O)c2ccc(NCCSc3ccccc3)c([N+](=O)[O-])c2)cc1`, the figures for the inhibition of growth at 100 µg/mL with Raji [1] and with MDA-MB-435 [4] were 58.3% and 25.6%, respectively. For the same molecule, the Ki was found to be 3.78 µM in assay [2], 1.8 µM in assay [3] and 5.82 µM at Bcl-2-like protein 1.

Regarding `CC[C@H](C)[C@H](NC(C)=O)C(=O)Nc1ccc(C(=O)NS(=O)(=O)c2ccc(NCCSc3ccccc3)c([N+](=O)[O-])c2)cc1`, the results for the inhibition of growth at 100 µg/mL with Raji [1] and in the assay with MDA-MB-435 [4] were 40.9% and 13.5%, respectively. Also, the results for the Ki (in assay [2]; in assay [3]; on Bcl-2-like protein 1) were 3.38 µM, 2.29 µM and 4.84 µM, respectively.

With `CSCC[C@H](NC(C)=O)C(=O)Nc1ccc(C(=O)NS(=O)(=O)c2ccc(NCCSc3ccccc3)c([N+](=O)[O-])c2)cc1`, the inhibition of growth at 100 µg/mL in the assay on Raji [1] was 40.1%; with MDA-MB-435 [4], 16%. In addition, the Ki was determined as 3.52 µM in assay [2], 3.11 µM in assay [3] and 3.91 µM on Bcl-2-like protein 1.

`CC(=O)N[C@@H](Cc1ccccc1)C(=O)Nc1ccc(C(=O)NS(=O)(=O)c2ccc(NCCSc3ccccc3)c([N+](=O)[O-])c2)cc1`: the inhibition of growth at 100 µg/mL came out at 26.8% in the assay with Raji [1] and 36.6% with MDA-MB-435 [4]. Moreover, the results for the Ki (in assay [2]; in assay [3]; at Bcl-2-like protein 1) were 3.39 µM, 3.11 µM and 3.42 µM, respectively.

As to `CC(=O)N[C@@H](Cc1c[nH]c2ccccc12)C(=O)Nc1ccc(C(=O)NS(=O)(=O)c2ccc(NCCSc3ccccc3)c([N+](=O)[O-])c2)cc1`, the results for the inhibition of growth at 100 µg/mL in the assay with Raji [1] and with MDA-MB-435 [4] were 31.8% and 9.36%, respectively. In addition, the Ki in assay [2] stood at 0.83 µM; in assay [3], 4.03 µM; at Bcl-2-like protein 1, 6.45 µM.

For `CC(=O)N[C@H](C(=O)Nc1ccc(C(=O)NS(=O)(=O)c2ccc(NCCSc3ccccc3)c([N+](=O)[O-])c2)cc1)C(C)C`, the inhibition of growth at 100 µg/mL in the assay with Raji [1] turned out to be 8.85%; with MDA-MB-435 [4] it was 6.33%. The Ki amounted to 9.49 µM in assay [2], 3.27 µM in assay [3] and 16.4 µM at Bcl-2-like protein 1.

For the molecule `O=C(Nc1ccc(C(=O)NS(=O)(=O)c2ccc(NCCSc3ccccc3)c([N+](=O)[O-])c2)cc1)c1ccccc1`, the values for the IC50 in the assay on HCT-116, in the assay on MDA-MB-435 [5] and in the assay with Raji [6] were 136 µM, 59.9 µM and 39.8 µM, respectively. The figures for the Ki (in assay [2]; in assay [3]; on Bcl-2-like protein 1) were 1.67 µM, 4.16 µM and 2.51 µM, respectively.

Take `O=C(NS(=O)(=O)c1ccc(NCCSc2ccccc2)c([N+](=O)[O-])c1)c1ccc(NC(=O)c2ccccc2F)cc1`: the IC50 stood at 40 µM in the assay on HCT-116, 48.1 µM in the assay with MDA-MB-435 [5] and 32.2 µM with Raji [6]. Besides, the Ki in assay [2] is 1.09 µM; in assay [3], 3.02 µM; at Bcl-2-like protein 1 it was 1.71 µM.

Turning to `O=C(Nc1ccc(C(=O)NS(=O)(=O)c2ccc(NCCSc3ccccc3)c([N+](=O)[O-])c2)cc1)c1cccc(F)c1`, the figures for the IC50 in the assay with HCT-116, with MDA-MB-435 [5] and in the assay with Raji [6] were above 168 µM, 59.5 µM and 39.4 µM, respectively. Also, the Ki in assay [2] was determined as 1.4 µM; in assay [3], 3.09 µM; at Bcl-2-like protein 1, 2.08 µM.

On to `O=C(Nc1ccc(C(=O)NS(=O)(=O)c2ccc(NCCSc3ccccc3)c([N+](=O)[O-])c2)cc1)c1ccc(F)cc1`, for which the IC50 was 78.9 µM with HCT-116, 57.5 µM in the assay on MDA-MB-435 [5] and 38.6 µM in the assay with Raji [6]. Besides, the Ki stood at 0.93 µM in assay [2], 2.54 µM in assay [3] and 1.94 µM at Bcl-2-like protein 1.

As for `O=C(NS(=O)(=O)c1ccc(NCCSc2ccccc2)c([N+](=O)[O-])c1)c1ccc(NC(=O)c2ccccc2Cl)cc1`, the IC50 with HCT-116 is above 164 µM; in the assay on MDA-MB-435 [5] it was 69.9 µM; with Raji [6], 41.2 µM.

In the case of `O=C(Nc1ccc(C(=O)NS(=O)(=O)c2ccc(NCCSc3ccccc3)c([N+](=O)[O-])c2)cc1)c1cccc(Cl)c1`, the IC50 with HCT-116 amounted to 33.1 µM; with MDA-MB-435 [5], 46.7 µM; in the assay on Raji [6], 37.5 µM.

For `O=C(Nc1ccc(C(=O)NS(=O)(=O)c2ccc(NCCSc3ccccc3)c([N+](=O)[O-])c2)cc1)c1ccc(Cl)cc1`, the IC50 in the assay on HCT-116 worked out at 43.4 µM; with MDA-MB-435 [5] it was 49.9 µM; with Raji [6], 37.5 µM.

On to `Cc1ccccc1C(=O)Nc1ccc(C(=O)NS(=O)(=O)c2ccc(NCCSc3ccccc3)c([N+](=O)[O-])c2)cc1`, for which the IC50 with HCT-116 came out at 161 µM; with MDA-MB-435 [5], 47.6 µM; in the assay on Raji [6], 38.8 µM.

As for `Cc1cccc(C(=O)Nc2ccc(C(=O)NS(=O)(=O)c3ccc(NCCSc4ccccc4)c([N+](=O)[O-])c3)cc2)c1`, the IC50 with HCT-116 is 169 µM; in the assay with MDA-MB-435 [5] it was above 169 µM; in the assay on Raji [6], 92.6 µM.

`Cc1ccc(C(=O)Nc2ccc(C(=O)NS(=O)(=O)c3ccc(NCCSc4ccccc4)c([N+](=O)[O-])c3)cc2)cc1`: the IC50 in the assay with HCT-116 is 48.6 µM; in the assay with MDA-MB-435 [5], 53 µM; in the assay on Raji [6], 38.8 µM.

`O=C(Nc1ccc(C(=O)NS(=O)(=O)c2ccc(NCCSc3ccccc3)c([N+](=O)[O-])c2)cc1)c1ccc(Br)cc1`: the IC50 was 10.5 µM with HCT-116, 39.5 µM in the assay on MDA-MB-435 [5] and 35 µM with Raji [6]. Further, the Ki was determined as 0.76 µM in assay [2], 4.1 µM in assay [3] and 1.5 µM on Bcl-2-like protein 1.

With `COc1ccc(C(=O)Nc2ccc(C(=O)NS(=O)(=O)c3ccc(NCCSc4ccccc4)c([N+](=O)[O-])c3)cc2)cc1`, the IC50 in the assay on HCT-116 stood at 14.6 µM; with MDA-MB-435 [5], 36.1 µM; with Raji [6], 22.9 µM. Further, the Ki in assay [2] turned out to be 0.8 µM; in assay [3] it was 3.11 µM; at Bcl-2-like protein 1 it was 1.27 µM.

As to `O=C(NS(=O)(=O)c1ccc(NCCSc2ccccc2)c([N+](=O)[O-])c1)c1ccc(NS(=O)(=O)c2ccccc2)cc1`, the values for the IC50 in the assay on HCT-116, with MDA-MB-435 [5] and with Raji [6] were 163 µM, above 163 µM and above 163 µM, respectively. For the same molecule, the Ki stood at 15.2 µM in assay [2], 7.22 µM in assay [3] and 2.29 µM at Bcl-2-like protein 1.

`CN(C)CC[C@H](CSc1ccccc1)Nc1ccc(S(=O)(=O)NC(=O)c2ccc(N3CCN(Cc4ccccc4-c4ccc(Cl)cc4)CC3)cc2)cc1[N+](=O)[O-]` [ABT 737]: the inhibition of growth at 100 µg/mL in the assay with Raji [1] was found to be 42.5%; in the assay with MDA-MB-435 [4], 55.4%. Besides, the IC50 is 47.7 µM in the assay with HCT-116, above 123 µM in the assay on MDA-MB-435 [5] and 93.5 µM in the assay with Raji [6].

For the origin of these results see ChEMBL document CHEMBL1938241, “Design, synthesis, and activity evaluation of broad-spectrum small-molecule inhibitors of anti-apoptotic Bcl-2 family proteins: characteristics of broad-spectrum protein binding and its effects on anti-tumor activity” (Bioorg Med Chem Lett, 2012).
